The values that follow come from patent US10829528B2, “Therapeutic agents for neurological and psychiatric disorders” (VIB VZW, priority 2016, dated 2020).

Assay [1] addresses T1, sushi1 domain of GABABR1a (Homo sapiens, UniProt Q9UBS5).
T1 construct: made in house
As to the kind of experiment: Isothermal titration calorimetry (ITC) with purified sushi1. In kind it is binding. Here is the method:
(§1) We first determined which GABAB subunit and isoform sAPPα bound. The GABABR is comprised of two subunits, the GABABR1 and the GABABR2 subunit. GABABR1 is present as two main isoforms (1a and 1b), with the only difference between these isoforms being the presence of two protein-binding sushi repeats in the ectodomain of GABABR1a (FIG. 1A-B). […] The sequence of the Sushi domain 1 is […].
All ITC experiments were carried out on a MicroCal iTC200 system. For ITC experiments involving APP constructs expressed in HEK293 cells, the purified GABABR1a-Sushi1 domain, sAPPα, CuBDAcD, AcD and CuBD constructs were buffer-exchanged by size exclusion chromatography in 20 mM Na-HEPES pH 7.0, 150 mM NaCl supplemented with 5 mM CaCl2. Concentrated samples were diluted and degassed before the experiment at the concentrations reported in the FIG. legends. sAPP fragments (all of them at 30 μM) were placed in the MicroCal sample cell and matching buffer was placed in the reference cell. Sushi1 (300 μM) was in the syringe and was injected into the cell in a series of 1 μL injections at 25° C. All the datasets were subtracted with a reference data consisting of serial injections of Sushi1 in the cell, containing buffer only under the same conditions. For ITC experiments involving synthetic APP peptides, the Sushi-1 protein was dialysed overnight to PBS buffer. […]

Another assay has as its target T2, GABABR1a (Homo sapiens, UniProt Q9UBS5).
T2 construct: expressed in transfected cells; host or cells: HEK293T
As to the kind of experiment: Cell surface binding assay: Fc-tagged APP proteins applied to GABABR-transfected HEK293 cells, bound Fc detected by immunofluorescence. The assay is classed as cell-based. Conditions: Fc-tagged proteins 500 nM, 1 hr at RT; GFP-transfected cells as negative control. Here is the method: To confirm the APPα-GABABR interaction and identify the interacting domains, we used a cell-based binding assay. Purified Fc-sAPPα (or its domains) were exogenously applied to GABABR-transfected HEK293 cells. Bound Fc-sAPPα was determined by immunofluorescence.
as §1
HEK293T cells were transfected with GFP (as negative control) or pdisplay-GABABR-1a, -1b, or -2 plasmids using Fugene6 (Promega). Twenty-four hours after transfection, the cells were incubated with Fc (as negative control) or the various Fc-tagged APP proteins (500 nM, in Dulbecco's modified Eagle's medium [DMEM] supplemented with 20 mM HEPES [pH 7.4]) for 1 hr at RT. After three brief washes with DMEM/20 mM HEPES (pH 7.4), cells were fixed in 4% paraformaldehyde, 4% sucrose in PBS. […] Image thresholding was set with ImageJ software using constant settings per experiment and the area of Fc binding was measured relative to cell area.

Assay [2] concerns primary hippocampal neurons. As to the kind of experiment: mEPSCs & mIPSCs in cultured primary hippocampal neurons (wild type). In kind it is cell-based, mouse. Particulars: acute application, 250 nM each. Here is the method: mEPSCs & mIPSCs are measured in cultured primary hippocampal neurons at baseline and following acute application of agonists. Excitatory terminals selectively express the sushi domain-containing GABABR1a isoform (ref18), where it functions to inhibit neurotransmitter release (ref 24). Acute exposure of primary hippocampal neurons from wild type mice to 30μM baclofen, a GABABR agonist, or 250 nM sAPPα (Fc cleaved) reduces the frequency of miniature excitatory postsynaptic currents (mEPSCs) by 68% (FIG. 8 a,b) and 39% (FIG. 8 c,d), respectively, with no effect on mEPSC amplitude (FIG. 8e). […] Acute application of 30 μM baclofen or 250 nM purified sAPPα reduces the frequency of miniature inhibitory postsynaptic currents (mIPSCs) by 63% (FIG. 8a, 9a) and 44% (FIG. 8c, 9b), respectively, which is blocked by pretreatment with the GABABR antagonist CGP55845 (CGP, 5 μM) (FIG. 8f, 9d). Application of sAPPα causes a minor (14%) reduction on mIPSC amplitude (FIG. 8e, 9c). […] Baclofen is known to reduce the frequencies of mEPSCs and mIPSCs, which we have also confirmed. […] To confirm that the agonist is acting through GABABR1a, the agonist is tested in cultures with shRNA mediated knockdown of GABABR1a or antisense oligonucleotides mediated exon skipping of the exon encoding the Sushi domain 1 of GABABR1a. Antagonists are tested by treatment in combination with the agonist, Baclofen. […] As an antagonist we test an antibody against the sushi domain sequence (SEQ ID No: 5): […] SWTDMDTPSRCV. An antibody specifically binding to this domain which acts as an antagonist increases the frequencies of mEPSCs and mIPSCs. sAPPα also reduces mEPSC and mIPSC frequency in App/Aplp1 dKO cultures (FIG. 8j, 9f), excluding the possibility that sAPPα interferes with a complex of full-length APP and GABABR1 to exert its effect on GABABR signaling.
Hippocampal neurons were cultured from E18 C57/B16 wild type mice or APP/APLP1 dKO mice (provided by Ulrike Muller46) and plated on poly-D-lysine (Millipore), and laminin (Invitrogen) coated coverslips (Nalge Nunc International). Neurons were maintained in Neurobasal medium (Invitrogen) supplemented with B27, glucose, glutamax, penicillin/streptomycin (Invitrogen) and 25 μM β-mercaptoethanol.
Single neurons from wild type or APP/APLP1 null mutant embryos (E18) were recorded within the large neuronal network at DIV 12-15. The intracellular whole-cell pipette medium contained (in mM): 136 KCl, 18 HEPES, 4 Na-ATP, 4.6 MgCl2, 15 Creatine Phosphate, 1 EGTA and 50 U/ml Phospocreatine Kinase (300 mOsm, pH 7.30). Regular external solution contained 2 mM/2 mM Ca2+/Mg2+(in mM: 140 NaCl, 2.4 KCl, 2 CaCl2), 2 MgCl2, 10 HEPES, 14 Glucose (300 mOsm, pH 7.30)) and TTX (1 μM). Pharmacological reagents (30 μM baclofen, 5 μM CGP), sAPLP1, full length sAPP and sAPP derived peptides (250 nM each) were bath applied (dissolved in external medium described above) using a separate gravity driven application inlet. Recordings were done in whole cell voltage clamp configuration at −70 mV with a double EPC-10 amplifier (HEKA Elektronik) under control of Patchmaster v2×32 software (HEKA Elektronik). Currents were low-pass filtered at 3 kHz and stored at 20 kHz. Patch pipettes were pulled from borosilicate glass using a multi-step puller (P-1000; Sutter Instruments). Pipette resistance ranged from 3 to 5 MΩ and was compensated to 75-80%. Only cells with series resistances <15 MΩ were included in analysis. All recordings were done at room temperature. Spontaneous events were detected using Mini Analysis program (Synaptosoft). mEPSCs and mIPSCs were separated on the basis of their distinct decay kinetics, using a threshold of 5 ms47. Baseline was determined from an average of 60 sec of recordings prior to protein or drug treatment. Effect of treatment was determined from an average of 30 sec recordings after 140 sec of protein or drug treatment.

A further assay deals with CA1 pyramidal neurons. As to the kind of experiment: Long-term potentiation in hippocampal slices. In kind it is cell-based. Conditions: non-primed high frequency stimulation protocol for agonists. Here is the method:
Long-term potentiation (LTP) is induced by stimulation of Schaffer collateral fibers and the response of CA1 pyramidal neurons is measured by extracellular recordings. For measuring antagonists, a primed burst stimulation protocol is used to activate GABABR receptors. Under this protocol, an antagonist blocks induction of LTP. For measuring agonists, a non-primed high frequency stimulation protocol is used.

T2 sequence (Q9UBS5 20-591 limits assumed): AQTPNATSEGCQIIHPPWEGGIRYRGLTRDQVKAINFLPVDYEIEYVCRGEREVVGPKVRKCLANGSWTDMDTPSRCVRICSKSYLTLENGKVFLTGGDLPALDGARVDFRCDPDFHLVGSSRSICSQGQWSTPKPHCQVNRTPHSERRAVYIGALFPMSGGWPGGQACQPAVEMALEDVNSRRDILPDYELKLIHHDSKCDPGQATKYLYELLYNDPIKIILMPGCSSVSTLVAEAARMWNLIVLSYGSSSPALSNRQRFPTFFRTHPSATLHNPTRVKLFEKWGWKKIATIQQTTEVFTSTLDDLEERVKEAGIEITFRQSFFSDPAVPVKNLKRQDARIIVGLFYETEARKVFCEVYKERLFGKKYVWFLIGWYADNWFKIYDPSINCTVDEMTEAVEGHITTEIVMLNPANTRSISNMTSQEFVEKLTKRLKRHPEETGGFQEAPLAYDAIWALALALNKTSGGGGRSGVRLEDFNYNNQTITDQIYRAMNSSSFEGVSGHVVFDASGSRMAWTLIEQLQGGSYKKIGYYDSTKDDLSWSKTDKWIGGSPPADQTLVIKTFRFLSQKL
T1 sequence (Q9UBS5 26-97): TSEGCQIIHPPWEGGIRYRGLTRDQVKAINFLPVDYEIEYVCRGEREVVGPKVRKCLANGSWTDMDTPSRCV

Consider “GGADTDYADG (listed as Homo sapiens) [residues 211-220, synthetic peptide within the ExD, 211-220AA of APP695]”, for which the “binding to sushi1 by ITC (in words)” value in assay [1] was “fails to bind”.

Regarding “ED: Fc-fusion of the 33 aa extension domain, mouse APP695 195-227aa”, the “binding to GABABR1a-expressing HEK293 cells (immunofluorescence)” value with GABABR1a was “sufficient for binding to GABABR1a”.

Regarding “NVDSADAEEDDSDVWWGGADTDYADGSEDKVVE (listed as Homo sapiens) [Extension domain of human sAPPα (33 amino acids)]”, in assay [2], the “effect on mEPSC frequency (in words)” value was “reduces the frequencies of mEPSCs and mIPSCs”; the “effect on mIPSC frequency (in words)” value is “reduces the frequencies of mEPSCs and mIPSCs”. In the assay on CA1 pyramidal neurons, the “effect on LTP” value is “facilitates LTP”.
